Earlier results, collected in article PMC4210863 (Bioorganic & medicinal chemistry, 2010).

Target: T1, O-GlcNAcase (OGA) (Homo sapiens, UniProt O60502)
T1 sequence (O60502 1-916): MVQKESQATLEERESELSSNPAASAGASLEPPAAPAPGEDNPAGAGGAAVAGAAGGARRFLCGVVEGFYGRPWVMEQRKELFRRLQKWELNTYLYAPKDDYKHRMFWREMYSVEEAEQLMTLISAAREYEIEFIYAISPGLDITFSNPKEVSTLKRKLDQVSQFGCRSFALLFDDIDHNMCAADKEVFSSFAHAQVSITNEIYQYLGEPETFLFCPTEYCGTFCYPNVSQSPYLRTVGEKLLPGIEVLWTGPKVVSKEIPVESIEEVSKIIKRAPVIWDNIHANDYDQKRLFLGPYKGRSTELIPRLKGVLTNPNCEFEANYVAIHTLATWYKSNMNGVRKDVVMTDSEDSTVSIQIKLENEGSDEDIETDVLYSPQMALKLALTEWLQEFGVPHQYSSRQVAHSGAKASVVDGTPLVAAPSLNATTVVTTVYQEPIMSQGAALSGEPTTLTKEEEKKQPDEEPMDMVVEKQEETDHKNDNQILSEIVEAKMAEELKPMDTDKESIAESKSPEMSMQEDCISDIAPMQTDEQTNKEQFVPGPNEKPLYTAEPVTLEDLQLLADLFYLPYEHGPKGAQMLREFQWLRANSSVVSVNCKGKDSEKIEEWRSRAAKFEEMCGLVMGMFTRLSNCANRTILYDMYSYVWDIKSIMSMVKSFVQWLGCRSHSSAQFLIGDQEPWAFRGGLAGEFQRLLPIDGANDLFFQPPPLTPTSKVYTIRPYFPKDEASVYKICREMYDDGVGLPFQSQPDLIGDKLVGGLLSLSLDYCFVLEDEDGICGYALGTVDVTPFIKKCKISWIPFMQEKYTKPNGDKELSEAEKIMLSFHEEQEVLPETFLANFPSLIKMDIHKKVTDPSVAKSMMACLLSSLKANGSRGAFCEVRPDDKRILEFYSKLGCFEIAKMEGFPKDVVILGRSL
Assay: fluorogenic substrate hydrolysis by OGA
Type: biochemical

CC(=O)N[C@H]1[C@H](Oc2ccc3c(c2)Oc2cc(O[C@@H]4O[C@H](CO)[C@@H](O)[C@H](O)[C@H]4NC(C)=O)ccc2C32OC(=O)c3ccccc32)O[C@H](CO)[C@@H](O)[C@@H]1O [compound 3, FDGlcNAc]
Km: 85 µM
